US20220251081A1, “HETEROBICYCLIC INHIBITORS OF MAT2A AND METHODS OF USE FOR TREATING CANCER” (priority 2019, published 2022)
pIC50: −log10 of the molar value.

What was measured:
HCT116 MTAP-/- = assay: Inhibition of cellular proliferation, 4 days, Cell Titer Glo, HCT116 MTAP-/-; format: cell-based; conditions: Homo sapiens, HCT-116, 96 h, IC50 score, read-out: 4 Day Relative Growth Inhibition (MTAP −/−)
How it was run: (§1)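 Isogenic human colon carcinoma lines differing only in MTAP status, plated 24 h before dosing, then exposed for 4 days at 37 °C/5% CO2 to a 10-point 3-fold dilution series (0.2% DMSO final). Read-out is Cell Titer Glo ATP luminescence, blank-subtracted and normalised to in-plate DMSO control, plotted as % proliferation change versus log molar concentration.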

[1] = system: SAM in HCT116 human colon carcinoma cell line with deleted MTAP gene; assay: Cellular assay of target engagement (SAM): SAM level by LC-MS/MS after 72 hrs; format: cell-based; conditions: HCT-116, IC50 score, read-out: Cell 72 h SAM Inhibition (MTAP −/−)
How it was run: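 MTAP-deleted HCT116 cells were seeded, then exposed 24 h later to a 10-point 3-fold compound dilution series for 72 h at 37 °C/5% CO2. They were lysed in cold 80% methanol/acetic acid containing d3-SAM internal standard. SAM was quantified by LC-MS/MS (MRM, m/z 399.2→250.1).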

HCT116 MTAP +/+ = assay: Inhibition of cellular proliferation, 4 days, Cell Titer Glo, HCT116 MTAP+/+; format: cell-based; conditions: Homo sapiens, HCT-116, 96 h, IC50 score, read-out: 4 Day Relative Growth Inhibition (MTAP +/+)
How it was run: as §1

MAT2A homodimer = target: T1, MAT2A homodimer (Homo sapiens, UniProt P31153); assay: Biochemical assay: inhibition of recombinant MAT2A homodimer (phosphate release, PiColorLock Gold); conditions: MAT2A IC50 score; read-out: Enzyme Inhibition
T1 construct: inferred from Ni sepharose purification and imidazole elution; made in house; host or cells: Sf9 insect cells, recombinant baculovirus (Bac to Bac, pFASTBAC1 vector)
How it was run: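 Baculovirus/Sf9-expressed, Ni-purified MAT2A at 4 μg/mL in pH 8.0 Tris/KCl/MgCl2/EDTA/BSA buffer, preincubated with compound 60 min at 25 °C. Started with ATP and L-methionine substrate mix (500 μM and 40 μM, stock in mix), 60 min at 25 °C; released phosphate by PiColorLock Gold against a phosphate standard curve.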

T1 sequence (P31153 whole entry): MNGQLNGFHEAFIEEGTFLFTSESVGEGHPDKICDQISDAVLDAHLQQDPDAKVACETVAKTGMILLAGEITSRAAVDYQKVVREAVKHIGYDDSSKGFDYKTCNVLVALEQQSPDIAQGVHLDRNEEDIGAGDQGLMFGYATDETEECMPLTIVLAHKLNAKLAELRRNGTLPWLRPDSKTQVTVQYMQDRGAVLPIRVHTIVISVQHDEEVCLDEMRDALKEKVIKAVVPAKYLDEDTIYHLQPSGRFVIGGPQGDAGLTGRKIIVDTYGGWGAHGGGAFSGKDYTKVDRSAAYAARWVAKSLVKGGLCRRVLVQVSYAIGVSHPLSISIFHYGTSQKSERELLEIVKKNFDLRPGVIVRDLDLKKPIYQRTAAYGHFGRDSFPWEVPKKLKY

| SMILES | pIC50 (HCT116 MTAP-/-) | pIC50 [1] | pIC50 (HCT116 MTAP +/+) | pIC50 (MAT2A homodimer) |
| --- | --- | --- | --- | --- |
| COc1ccc(-c2cc3cnc(NCC(F)(F)F)nc3n(-c3ccc(Br)cc3)c2=O)cc1 [Example 232, 8-(4-bromophenyl)-6-(4-methoxyphenyl)-2-(2,2,2-trifluoroethylamino)pyrido[2,3-d]pyrimidin-7(8H)-one] | 6.00 to 7.00 | > 7.00 | ≤ 6.00 | > 7.00 |
| COc1ccc(-c2cc3cnc(NCC(F)(F)F)nc3n(-c3ccc(-c4ccn[nH]4)cc3)c2=O)cc1 [Example 233, 8-(4-(1H-pyrazol-5-yl)phenyl)-6-(4-methoxyphenyl)-2-(2,2,2-trifluoroethylamino)pyrido[2,3-d]pyrimidin-7(8H)-one] | > 7.00 | > 7.00 | ≤ 6.00 | > 7.00 |
| COc1ccc(-n2c(=O)c(-c3ccc(=O)[nH]c3)cc3cnc(NCC(F)(F)F)nc32)cc1 [Example 235, 8-(4-methoxyphenyl)-6-(6-oxo-1,6-dihydropyridin-3-yl)-2-(2,2,2-trifluoroethylamino)pyrido[2,3-d]pyrimidin-7(8H)-one] | 6.00 to 7.00 | 6.00 to 7.00 | ≤ 6.00 | > 7.00 |
| CCCc1ccc2cc(-c3ccc4nn(C)cc4c3)c(=O)n(-c3ccc(Cl)cc3)c2n1 [Example 236, 1-(4-chlorophenyl)-3-(2-methyl-2H-indazol-5-yl)-7-propyl-1,8-naphthyridin-2(1H)-one] | > 7.00 | > 7.00 | ≤ 6.00 | > 7.00 |
| COc1ccc(-c2cc3ncc(NCC(F)(F)F)nc3n(-c3ccc(OC(F)F)cc3)c2=O)cc1 [Example 237, 5-(4-(difluoromethoxy)phenyl)-7-(4-methoxyphenyl)-3-((2,2,2-trifluoroethyl)amino)pyrido[2,3-b]pyrazin-6(5H)-one] | > 7.00 | > 7.00 | ≤ 6.00 | > 7.00 |
| [2H]C([2H])([2H])Oc1ccc(-n2c(=O)c(-c3ccc4nn(C)cc4c3)cc3ccc(OC([2H])([2H])C([2H])([2H])[2H])nc32)cc1 [Example 301] | > 7.00 | > 7.00 | 6.00 to 7.00 | > 7.00 |
| [2H]C([2H])([2H])Oc1ccc(-n2c(=O)c(-c3ccc4nn(C)cc4c3)cc3ccc(OCCF)nc32)cc1 [Example 302] | > 7.00 | > 7.00 | 6.00 to 7.00 | > 7.00 |
| [2H]C([2H])([2H])Oc1ccc(-n2c(=O)c(-c3ccc4nn(C([2H])([2H])[2H])cc4c3)cc3ccc(OC([2H])([2H])C([2H])([2H])[2H])nc32)cc1 [Example 303] | > 7.00 | > 7.00 | 6.00 to 7.00 | > 7.00 |
| [2H]C([2H])([2H])Oc1ccc(-n2c(=O)c(-c3ccc4nn(C)cc4c3)cc3ccc(O[C@@H](C)C(F)(F)F)nc32)cc1 [Example 305] | > 7.00 | > 7.00 | ≤ 6.00 | > 7.00 |
| CCNc1ccc2cc(-c3ccc4nn(C)cc4c3)c(=O)n(-c3ccc(C)nc3)c2n1 [Example 307] | > 7.00 | > 7.00 | ≤ 6.00 | > 7.00 |
| CCNc1ccc2cc(-c3ccc4nn(C)cc4c3)c(=O)n(-c3ccc(C4CC4)nc3)c2n1 [Example 308] | > 7.00 | > 7.00 | ≤ 6.00 | > 7.00 |
| CCNc1ccc2cc(-c3ccc4nn(C)cc4c3)c(=O)n(-c3ccc(OC(F)F)cc3)c2n1 [Example 309] | > 7.00 | > 7.00 | > 7.00 | > 7.00 |
| CCNc1ccc2cc(-c3ccc4nn(C)cc4c3)c(=O)n(-c3ccc(Cl)cc3)c2n1 [Example 310] | > 7.00 | > 7.00 | 6.00 to 7.00 | > 7.00 |
| COc1ccc(-n2c(=O)c(-c3ccc4nn(C)cc4c3)cc3ccc(OCC(F)(F)F)nc32)cc1 [Example 313] | > 7.00 | > 7.00 | ≤ 6.00 | > 7.00 |
| Cn1cc2cc(-c3cc4ccc(OCC(F)(F)F)nc4n(-c4ccc(C5CC5)cc4)c3=O)ccc2n1 [Example 314] | > 7.00 | > 7.00 | ≤ 6.00 | > 7.00 |
| [2H]C([2H])([2H])Oc1ccc(-n2c(=O)c(-c3ccc4nn(C)cc4c3)cc3ccc(OCC(F)(F)F)nc32)cc1 [Example 316] | > 7.00 | > 7.00 | ≤ 6.00 | > 7.00 |
| CCOc1ccc2cc(-c3ccc4nn(C)cc4c3)c(=O)n(-c3ccc(Br)cc3)c2n1 [Example 317] | 6.00 to 7.00 | > 7.00 | 6.00 to 7.00 | > 7.00 |
| Cn1cc2cc(-c3cc4ccc(OCC(F)F)nc4n(-c4ccc(Br)cc4)c3=O)ccc2n1 [Example 318] | > 7.00 | > 7.00 | 6.00 to 7.00 | > 7.00 |

| SMILES | pIC50 (HCT116 MTAP-/-) | pIC50 [1] | pIC50 (HCT116 MTAP +/+) | pIC50 (MAT2A homodimer) |
| --- | --- | --- | --- | --- |
| Cn1cc2cc(-c3cc4ccc(OCC(F)(F)F)nc4n(-c4ccc(Br)cc4)c3=O)ccc2n1 [Example 319] | > 7.00 | > 7.00 | ≤ 6.00 | > 7.00 |
| Cn1cc2cc(-c3cc4ccc(OCC(F)(F)F)nc4n(-c4ccc(N)nc4)c3=O)ccc2n1 [Example 320] | > 7.00 | > 7.00 | 6.00 to 7.00 | > 7.00 |
| Cn1cc2cc(-c3cc4ccc(OCC(F)F)nc4n(-c4ccc(OC(F)F)cc4)c3=O)ccc2n1 [Example 321] | > 7.00 | > 7.00 | ≤ 6.00 | > 7.00 |
| [2H]C([2H])([2H])Oc1ccc(-n2c(=O)c(-c3ccc4nn(C)cc4c3)cc3ccc(OC(C)C)nc32)cc1 [Example 322] | > 7.00 | > 7.00 | ≤ 6.00 | > 7.00 |
| [2H]C([2H])([2H])Oc1ccc(-n2c(=O)c(-c3ccc4nn(C)cc4c3)nc3ccc(OCC)nc32)cc1 [Example 324] | > 7.00 | > 7.00 | 6.00 to 7.00 | > 7.00 |
| [2H]C([2H])([2H])Oc1ccc(-n2c(=O)c(-c3ccc4nn(C)cc4c3)nc3ccc(OCC(F)F)nc32)cc1 [Example 325] | > 7.00 | > 7.00 | ≤ 6.00 | > 7.00 |
| [2H]C([2H])([2H])Oc1ccc(-n2c(=O)c(-c3ccc4nn(C)cc4c3)nc3ccc(OCC(F)(F)F)nc32)cc1 [Example 326] | > 7.00 | > 7.00 | ≤ 6.00 | > 7.00 |
| COc1ccc(-n2c(=O)c(-c3ccc4nn(C)cc4c3)nc3ccc(OCC(F)(F)F)nc32)cc1 [Example 327] | > 7.00 | > 7.00 | ≤ 6.00 | > 7.00 |
| Cn1cc2cc(-c3nc4ccc(OCC(F)(F)F)nc4n(-c4ccc(OC(F)F)cc4)c3=O)ccc2n1 [Example 328] | > 7.00 | > 7.00 | ≤ 6.00 | > 7.00 |
| Cn1cc2cc(-c3nc4ccc(OCC(F)(F)F)nc4n(-c4ccc(C5CC5)cc4)c3=O)ccc2n1 [Example 329] | > 7.00 | > 7.00 | ≤ 6.00 | > 7.00 |
| CCOc1ccc2nc(-c3ccc4nn(C)cc4c3)c(=O)n(-c3ccc(C4CC4)cc3)c2n1 [Example 330] | > 7.00 | > 7.00 | ≤ 6.00 | > 7.00 |
| [2H]C([2H])([2H])Oc1ccc(-n2c(=O)c(-c3ccc4nn(C)cc4c3)nc3ccc(OC(C)C)nc32)cc1 [Example 331] | > 7.00 | > 7.00 | ≤ 6.00 | > 7.00 |
| Cn1cc2cc(-c3nc4ccc(OCC(F)(F)F)nc4n(-c4ccc(C5CC5)nc4)c3=O)ccc2n1 [Example 332] | > 7.00 | > 7.00 | ≤ 6.00 | > 7.00 |
| Cc1ccc(-n2c(=O)c(-c3ccc4nn(C)cc4c3)nc3ccc(OCC(F)(F)F)nc32)cn1 [Example 333] | 6.00 to 7.00 | > 7.00 | ≤ 6.00 | > 7.00 |
| COc1ccc(-n2c(=O)c(-c3ccc4nn(CCO)cc4c3)nc3ccc(OCC(F)(F)F)nc32)cc1 [Example 335, 2-(2-(2-hydroxyethyl)-2H-indazol-5-yl)-4-(4-methoxyphenyl)-6-(2,2,2-trifluoroethoxy)pyrido[2,3-b]pyrazin-3(4H)-one] | > 7.00 | > 7.00 | ≤ 6.00 | > 7.00 |
| CCNc1ccc2nc(-c3ccc4nn(C)cc4c3)c(=O)n(-c3ccc(OC(F)F)cc3)c2n1 [Example 338] | > 7.00 | > 7.00 | > 7.00 | > 7.00 |
| COc1ccc(-n2c(=O)c(-c3ccc4nc(C)n(C)c4c3)nc3ccc(OCC(F)(F)F)nc32)cc1 [Example 340] | > 7.00 | > 7.00 | ≤ 6.00 | > 7.00 |
| CCNc1ccc2nc(-c3ccc4nn(C)cc4c3)c(=O)n(-c3ccc(OC)cc3)c2n1 [Example 341] | > 7.00 | > 7.00 | ≤ 6.00 | > 7.00 |
